# Source: patent US8959984B2, “Proteome-wide quantification of small molecule binding to cellular target proteins” (priority 2007, dated 2015)
# Legend:
# Assay in all cases: binding to VI16742 beads (HeLa lysate, SILAC MS)
# [1] = molecular target: T1, PHKg2 (PHKG2, IPI00012891) (Homo sapiens, UniProt P15735)
# T1 construct: endogenous in cells; host or cells: HeLa S3
# T1 sequence (P15735 1-406): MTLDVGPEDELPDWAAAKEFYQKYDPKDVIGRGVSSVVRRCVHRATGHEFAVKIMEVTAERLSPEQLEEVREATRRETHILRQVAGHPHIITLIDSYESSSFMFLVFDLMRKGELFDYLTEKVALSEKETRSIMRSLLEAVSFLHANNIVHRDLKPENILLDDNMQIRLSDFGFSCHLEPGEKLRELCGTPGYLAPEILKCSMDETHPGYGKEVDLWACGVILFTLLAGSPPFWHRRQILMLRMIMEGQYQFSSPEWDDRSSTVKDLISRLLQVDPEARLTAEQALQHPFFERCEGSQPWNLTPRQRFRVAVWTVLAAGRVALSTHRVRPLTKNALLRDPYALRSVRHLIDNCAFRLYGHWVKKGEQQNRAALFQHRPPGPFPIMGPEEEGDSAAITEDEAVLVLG
# Description: (§1) In an alternative implementation of the chemical proteomic approach according to the invention, the broadly-selective pyrido[2,3-d]pyrimidine-based kinase inhibitor VI16742 has been used for affinity capture (FIG. 10a). […] As shown by gene ontology analysis, the corresponding molecular functions were highly over-represented in proteins specifically retained by the inhibitor resin (FIG. 10b).
# [2] = molecular target: T2, PKACb (PRKACB, IPI00376119) (Homo sapiens, UniProt P22694)
# T2 construct: endogenous in cells; host or cells: HeLa S3
# Description: as §1
# [3] = molecular target: T3, OSR1 (OXSR1, IPI00010080) (Homo sapiens, UniProt O95747)
# T3 construct: endogenous in cells; host or cells: HeLa S3
# T3 sequence (O95747 whole entry): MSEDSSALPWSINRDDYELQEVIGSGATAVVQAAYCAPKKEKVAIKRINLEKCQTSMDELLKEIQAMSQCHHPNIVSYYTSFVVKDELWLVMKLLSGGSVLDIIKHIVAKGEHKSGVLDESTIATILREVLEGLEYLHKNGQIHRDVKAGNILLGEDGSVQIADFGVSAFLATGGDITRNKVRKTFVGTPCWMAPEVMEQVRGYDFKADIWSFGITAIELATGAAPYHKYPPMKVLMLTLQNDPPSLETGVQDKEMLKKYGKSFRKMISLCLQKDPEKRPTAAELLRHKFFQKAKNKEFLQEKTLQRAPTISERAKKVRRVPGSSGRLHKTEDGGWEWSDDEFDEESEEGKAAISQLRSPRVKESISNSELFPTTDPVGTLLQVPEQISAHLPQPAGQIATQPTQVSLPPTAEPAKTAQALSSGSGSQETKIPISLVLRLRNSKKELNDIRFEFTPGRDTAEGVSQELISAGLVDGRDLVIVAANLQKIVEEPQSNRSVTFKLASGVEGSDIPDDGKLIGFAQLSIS
# Description: as §1
# [4] = molecular target: T4, TAO1 (TAOK1, IPI00002232) (Homo sapiens, UniProt Q7L7X3)
# T4 construct: endogenous in cells; host or cells: HeLa S3
# T4 sequence (Q7L7X3 1-1001): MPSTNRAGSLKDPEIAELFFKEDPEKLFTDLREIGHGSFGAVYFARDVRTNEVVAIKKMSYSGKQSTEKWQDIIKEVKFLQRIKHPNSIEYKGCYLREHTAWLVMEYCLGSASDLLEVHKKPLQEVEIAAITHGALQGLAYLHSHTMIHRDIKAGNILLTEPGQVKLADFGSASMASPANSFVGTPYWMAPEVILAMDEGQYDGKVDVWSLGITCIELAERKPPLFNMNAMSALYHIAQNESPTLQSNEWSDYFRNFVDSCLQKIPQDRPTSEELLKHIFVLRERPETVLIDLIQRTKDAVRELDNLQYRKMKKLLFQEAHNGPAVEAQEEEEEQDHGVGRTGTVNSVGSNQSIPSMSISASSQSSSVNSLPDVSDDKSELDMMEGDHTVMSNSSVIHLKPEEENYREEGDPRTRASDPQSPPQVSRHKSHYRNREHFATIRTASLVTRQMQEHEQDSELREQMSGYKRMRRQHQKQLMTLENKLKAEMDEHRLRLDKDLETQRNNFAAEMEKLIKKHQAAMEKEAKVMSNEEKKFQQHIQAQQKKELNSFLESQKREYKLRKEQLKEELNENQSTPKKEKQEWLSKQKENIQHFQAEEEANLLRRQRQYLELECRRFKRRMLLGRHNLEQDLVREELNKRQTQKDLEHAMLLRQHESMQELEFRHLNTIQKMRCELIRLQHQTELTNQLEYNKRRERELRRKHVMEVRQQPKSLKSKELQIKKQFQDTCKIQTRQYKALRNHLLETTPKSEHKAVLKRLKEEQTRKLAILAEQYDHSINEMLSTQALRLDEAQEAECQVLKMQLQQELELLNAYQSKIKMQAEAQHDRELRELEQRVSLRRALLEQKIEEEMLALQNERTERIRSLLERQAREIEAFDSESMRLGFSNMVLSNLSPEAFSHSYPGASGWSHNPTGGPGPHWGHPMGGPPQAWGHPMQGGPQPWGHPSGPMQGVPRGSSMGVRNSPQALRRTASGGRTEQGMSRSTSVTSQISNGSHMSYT
# Description: as §1
# MAP2K4 (IPI00789335) = molecular target: T5, MAP2K4 (IPI00789335) (Homo sapiens, UniProt P45985)
# T5 construct: endogenous in cells; host or cells: HeLa S3
# T5 sequence (P45985 1-399): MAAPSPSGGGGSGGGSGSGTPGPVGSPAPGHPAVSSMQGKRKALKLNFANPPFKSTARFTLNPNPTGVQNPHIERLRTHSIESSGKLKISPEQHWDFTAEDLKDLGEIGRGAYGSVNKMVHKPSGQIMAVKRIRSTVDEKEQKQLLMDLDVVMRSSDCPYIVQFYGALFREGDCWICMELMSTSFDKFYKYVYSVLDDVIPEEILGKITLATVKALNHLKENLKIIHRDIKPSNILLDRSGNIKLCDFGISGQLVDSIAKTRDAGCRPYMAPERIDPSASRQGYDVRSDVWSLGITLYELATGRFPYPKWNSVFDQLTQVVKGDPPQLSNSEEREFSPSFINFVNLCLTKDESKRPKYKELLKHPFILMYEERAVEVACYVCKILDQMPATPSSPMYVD
# Description: as §1
# APRT (IPI00218693) = molecular target: T6, APRT (IPI00218693) (Homo sapiens, UniProt P07741)
# T6 construct: endogenous in cells; host or cells: HeLa S3
# T6 sequence (P07741 1-180): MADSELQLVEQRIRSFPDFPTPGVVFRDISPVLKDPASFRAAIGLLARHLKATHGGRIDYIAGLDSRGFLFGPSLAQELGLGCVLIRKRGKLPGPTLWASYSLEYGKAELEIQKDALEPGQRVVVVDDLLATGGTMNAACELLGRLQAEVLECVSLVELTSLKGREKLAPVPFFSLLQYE
# Description: as §1
# [5] = molecular target: T7, MRCKb (CDC42BPB, IPI00477763) (Homo sapiens, UniProt Q9Y5S2)
# T7 construct: endogenous in cells; host or cells: HeLa S3
# T7 sequence (Q9Y5S2 whole entry): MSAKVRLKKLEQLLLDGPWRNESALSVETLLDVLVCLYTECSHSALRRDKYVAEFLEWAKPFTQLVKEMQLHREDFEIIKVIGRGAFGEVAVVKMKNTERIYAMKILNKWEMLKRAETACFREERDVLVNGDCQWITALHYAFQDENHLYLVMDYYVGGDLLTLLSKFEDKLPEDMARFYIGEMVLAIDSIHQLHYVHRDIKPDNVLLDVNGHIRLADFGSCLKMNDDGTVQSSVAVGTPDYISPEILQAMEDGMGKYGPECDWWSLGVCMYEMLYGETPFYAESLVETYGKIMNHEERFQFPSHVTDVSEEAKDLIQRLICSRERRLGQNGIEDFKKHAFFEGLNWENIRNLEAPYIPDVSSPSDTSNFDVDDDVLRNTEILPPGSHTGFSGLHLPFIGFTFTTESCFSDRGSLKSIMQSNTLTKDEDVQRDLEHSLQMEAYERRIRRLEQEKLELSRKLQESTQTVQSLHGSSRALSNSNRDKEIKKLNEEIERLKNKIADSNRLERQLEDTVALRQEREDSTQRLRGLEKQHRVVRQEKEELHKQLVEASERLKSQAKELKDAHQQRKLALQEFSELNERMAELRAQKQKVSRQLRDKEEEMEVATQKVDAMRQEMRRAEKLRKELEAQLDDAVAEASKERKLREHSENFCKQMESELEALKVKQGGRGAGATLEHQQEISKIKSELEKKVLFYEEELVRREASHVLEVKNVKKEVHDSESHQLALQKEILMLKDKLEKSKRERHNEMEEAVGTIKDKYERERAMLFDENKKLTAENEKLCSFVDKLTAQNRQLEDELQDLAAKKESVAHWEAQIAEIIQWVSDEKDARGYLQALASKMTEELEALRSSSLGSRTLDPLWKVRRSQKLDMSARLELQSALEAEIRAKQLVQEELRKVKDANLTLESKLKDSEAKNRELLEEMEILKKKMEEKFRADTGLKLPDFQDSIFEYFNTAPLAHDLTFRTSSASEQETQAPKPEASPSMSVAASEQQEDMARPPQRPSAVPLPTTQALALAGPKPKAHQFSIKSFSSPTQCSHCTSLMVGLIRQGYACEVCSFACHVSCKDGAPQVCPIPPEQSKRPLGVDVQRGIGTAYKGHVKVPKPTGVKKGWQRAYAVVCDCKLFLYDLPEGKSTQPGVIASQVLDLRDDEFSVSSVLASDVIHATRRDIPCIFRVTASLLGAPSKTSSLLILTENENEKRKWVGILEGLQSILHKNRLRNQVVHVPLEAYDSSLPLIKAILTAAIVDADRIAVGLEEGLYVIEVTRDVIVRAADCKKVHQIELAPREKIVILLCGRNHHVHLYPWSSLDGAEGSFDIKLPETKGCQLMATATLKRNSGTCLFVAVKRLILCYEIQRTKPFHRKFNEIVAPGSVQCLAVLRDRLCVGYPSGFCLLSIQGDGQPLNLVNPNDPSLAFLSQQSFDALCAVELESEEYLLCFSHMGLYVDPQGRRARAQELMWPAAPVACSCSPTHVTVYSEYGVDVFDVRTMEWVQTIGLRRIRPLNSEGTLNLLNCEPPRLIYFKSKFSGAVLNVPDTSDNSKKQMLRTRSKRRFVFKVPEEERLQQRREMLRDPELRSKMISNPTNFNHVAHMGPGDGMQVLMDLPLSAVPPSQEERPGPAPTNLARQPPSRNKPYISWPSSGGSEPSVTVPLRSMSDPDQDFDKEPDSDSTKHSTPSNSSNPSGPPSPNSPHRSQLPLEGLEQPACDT
# Description: as §1
# [6] = control beads vs first incubation
compound,measurement,setting,value
CC(C)n1c(=O)ccc2cnc(Nc3ccc(OCCN)cc3)nc21 [V16742],r (3 MG/1 MG LYSATE),[1]; 3 mg vs 1 mg lysate,2.14
same,r (5 h/2.5 h INC. TIME),[1]; 5 h vs 2.5 h incubation time,1.33
same,rAVERAGE (CTRL/1 INC),[1]; [6],0.10
same,Ki,[1]; immobilized VI16742,296 µM
same,rAVERAGE (2 INC/1 INC),[1]; second vs first incubation,0.85
same,rAVERAGE (CTRL/1 INC),[2]; [6],0.01
same,Ki,[2]; immobilized VI16742,390 µM
same,rAVERAGE (2 INC/1 INC),[2]; second vs first incubation,0.88
same,rAVERAGE (CTRL/1 INC),[3]; [6],0.05
same,Ki,[3]; immobilized VI16742,207 µM
same,rAVERAGE (2 INC/1 INC),[3]; second vs first incubation,0.80
same,r (3 MG/1 MG LYSATE),[4]; 3 mg vs 1 mg lysate,2.64
same,r (5 h/2.5 h INC. TIME),[4]; 5 h vs 2.5 h incubation time,1.02
same,rAVERAGE (CTRL/1 INC),[4]; [6],0.06
same,Ki,[4]; immobilized VI16742,162 µM
same,rAVERAGE (2 INC/1 INC),[4]; second vs first incubation,0.76
same,rAVERAGE (CTRL/1 INC),MAP2K4 (IPI00789335); [6],0.06
same,Ki,MAP2K4 (IPI00789335); immobilized VI16742,127 µM
same,rAVERAGE (2 INC/1 INC),MAP2K4 (IPI00789335); second vs first incubation,0.71
same,r (3 MG/1 MG LYSATE),APRT (IPI00218693); 3 mg vs 1 mg lysate,1.04
same,r (5 h/2.5 h INC. TIME),APRT (IPI00218693); 5 h vs 2.5 h incubation time,1.40
same,rAVERAGE (CTRL/1 INC),APRT (IPI00218693); [6],0.05
same,Ki,APRT (IPI00218693); immobilized VI16742,223 µM
same,rAVERAGE (2 INC/1 INC),APRT (IPI00218693); second vs first incubation,0.81
same,r (3 MG/1 MG LYSATE),[5]; 3 mg vs 1 mg lysate,2.35
same,r (5 h/2.5 h INC. TIME),[5]; 5 h vs 2.5 h incubation time,1.34
same,rAVERAGE (CTRL/1 INC),[5]; [6],0.06
same,Ki,[5]; immobilized VI16742,301 µM
same,rAVERAGE (2 INC/1 INC),[5]; second vs first incubation,0.85
